Measured values reported in patent publication US20240115270A1, “DIRECT ORAL ANTICOAGULANT-ELUTING MEDICAL DEVICE” (BOSTON SCIENTIFIC SCIMED, INC., priority 2021, published 2024).

Assays:
heparinized bovine blood = assay: Clot formation on dip-coated PET fabric disks in heparinized bovine blood; settings: PVDF-HFP/drug 90/10 dip-coated 15 mm PET fabric disks, ACT about 190 seconds, 37° C., various time points, images FIG. 5
Method: A solution of PVDF-HFP and DOAC was prepared in 80/20 acetone/DMSO (wt/wt). The PVDF-HFP to drug ratio was 90/10 (wt/wt) and the solution solids was 0.7%. The DOAC drugs evaluated were apixaban (Eliquis®), rivaroxaban (Xarelto®) and edoxaban (Savaysa®) 15 mm diameter polyethylene terephthalate (PET) fabric disks were dip coated into the polymer/drug solution at a dip speed of 5 mm/sec. The coated disks were dried for 30 min at 125° C. in a convection oven. The drug coated disks and PVDF-HFP only control disks were placed in cups containing heparinized bovine blood adjusted to an active clotting time (ACT) of about 190 seconds using protamine. The cups were placed on an orbital shaker incubator at 37° C. and disks were removed at various time points and imaged. The disks were then dried and weighed to determine clot weight. […] The clot weights provided in FIG. 6 verify the minimal amount of thrombus formed on the DOAC treated fabric.

bovine blood = assay: Thrombogenicity of spray-coated Watchman device in bovine blood; settings: bovine blood ACT=210, 15 minutes
Method: A drug/polymer solution of PVDF-HFP and DOAC was prepared in 80/20 acetone/DMSO (wt/wt). The PVDF-HFP to drug ratio was 60/40 (wt/wt) and the solution solids was 2%. The DOAC drug evaluated was rivaroxaban (Xarelto). A 24 mm diameter Watchman device was spray-coated with the polymer/drug solution at a flow rate of 10 ml/hr to apply a basecoat. The device was dried for 30 min at 125° C. in a convection oven and then spray-coated with a topcoat solution (2% PVDF-HFP in 100% acetone), at a flow rate of 10 ml/hr. The total basecoat weight was 38.8 mg and the topcoat weight was 18.7 mg. The spray-coated device was then placed in PBS/Tween solution at 37° C. for 11 days to simulate in vivo drug elution. The device was then rinsed with DI water and dried. A PVDF-HFP-only coated control device was also subjected to the same incubation and rinsing protocol. The DOAC-eluting device and the control device were placed in the same container of bovine blood (ACT=210) on an orbital shaker incubator at 37° C. for 15 minutes to assess the thrombogenicity of the two devices.
A solution of PVDF-HFP and DOAC was prepared in 40/60 acetone/DMF (wt/wt). The PVDF-HFP to drug ratio was 70/30 (wt/wt) and the solution solids was 4%. The DOAC drug evaluated was apixaban. […]

Structure (SMILES)	thrombus (clots) compared to the PVDF-HFP coated control (heparinized bovine blood)	thrombus formation on partially coated (masked) device (bovine blood; PVDF-HFP/drug 70/30 basecoat plus topcoat, proximal face only, 24 mm Watchman, after 7 days in PBS/Tween at 37° C., FIG. 10B)	thrombus formation on device versus PVDF-HFP-only coated control device (bovine blood; PVDF-HFP/drug 60/40 basecoat plus topcoat on 24 mm Watchman, after 11 days in PBS/Tween at 37° C., FIGS. 9A-9D)
COc1ccc(-n2nc(C(N)=O)c3c2C(=O)N(c2ccc(N4CCCCC4=O)cc2)CC3)cc1 [apixaban]	significantly less thrombus	inhibited thrombus formation only on the proximal face of the device	–
O=C(NC[C@H]1CN(c2ccc(N3CCOCC3=O)cc2)C(=O)O1)c1ccc(Cl)s1 [rivaroxaban]	significantly less thrombus	–	inhibited thrombus formation on the proximal face of the device to a greater degree than did the control device
